# Measured values published in patent publication US11420956B2, “Ureas having Androgen Receptor degradation activity and uses thereof” (ACCUTAR BIOTECHNOLOGY INC., priority 2019, dated 2022).
# Numbering of substitutions follows the chain as printed.
# Columns and labels:
# Assay type in all cases: cell-based
# Details in all cases: 24 hours after administration
# androgen receptor (AR) [1] = biological target: T1, androgen receptor (AR) (Homo sapiens, UniProt P10275, T878A); test: AR degradation in LNCAP cells (Western blot)
# T1 construct: endogenous in cells; host or cells: LNCAP
# T1 sequence (P10275 1-920 T878A): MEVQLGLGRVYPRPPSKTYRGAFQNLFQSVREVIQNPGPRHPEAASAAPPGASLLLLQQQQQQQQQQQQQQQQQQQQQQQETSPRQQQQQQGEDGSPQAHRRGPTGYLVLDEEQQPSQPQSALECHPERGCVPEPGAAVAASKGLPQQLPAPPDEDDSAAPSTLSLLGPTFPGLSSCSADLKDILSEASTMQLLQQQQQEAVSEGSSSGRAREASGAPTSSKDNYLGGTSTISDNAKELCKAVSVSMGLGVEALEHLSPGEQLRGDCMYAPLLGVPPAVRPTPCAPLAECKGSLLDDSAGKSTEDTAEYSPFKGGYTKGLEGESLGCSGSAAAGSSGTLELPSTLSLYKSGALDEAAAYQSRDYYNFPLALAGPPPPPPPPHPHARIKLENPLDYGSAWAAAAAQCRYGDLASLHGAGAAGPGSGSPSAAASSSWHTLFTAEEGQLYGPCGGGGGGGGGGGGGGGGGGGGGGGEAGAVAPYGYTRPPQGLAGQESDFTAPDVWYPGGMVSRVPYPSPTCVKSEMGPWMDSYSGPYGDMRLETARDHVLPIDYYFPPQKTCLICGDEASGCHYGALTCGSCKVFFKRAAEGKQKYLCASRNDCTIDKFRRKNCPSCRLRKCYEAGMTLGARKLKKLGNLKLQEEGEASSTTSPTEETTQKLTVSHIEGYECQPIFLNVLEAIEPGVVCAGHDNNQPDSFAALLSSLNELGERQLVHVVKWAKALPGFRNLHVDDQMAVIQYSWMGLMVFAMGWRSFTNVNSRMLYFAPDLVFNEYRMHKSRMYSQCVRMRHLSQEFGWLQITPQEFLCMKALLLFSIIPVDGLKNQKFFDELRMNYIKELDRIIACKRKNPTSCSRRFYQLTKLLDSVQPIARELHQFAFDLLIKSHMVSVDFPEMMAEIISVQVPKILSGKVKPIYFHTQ
# In short: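 Cells plated in RPMI with 10% FBS overnight, then treated with compound at various concentrations (from 1000× DMSO stocks) for 24 h at 37 °C. AR level measured by Western blot with GAPDH as loading control, infrared-fluorescent detection and band quantification; DC50 is concentration giving 50% AR degradation.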
# androgen receptor (AR) [2] = test: AR degradation in 22Rv1 cells (Western blot)
# Procedure: (§1) LNCAP, VCAP and 22Rv1 cells were plated in 24-well plates at 1.5×10E5 cells/well in the RPMI growth medium containing 10% FBS and 1% Penicillin Streptomycin, and then incubated at 37° C. overnight. The following day, the test compound was administered to the cells by using 1000× compound stock solution prepared in DMSO at various concentrations. After administration of the compound, the cells were then incubated at 37° C. for 24 hours. Upon completion, the cells were washed with PBS and protein was collected in Laemmli sample buffer (1×; VWR International). Proteins in cell lysate were separated by SDS-PAGE and transferred to Odyssey nitrocellulose membranes (Licor) with iblot® dry blotting transfer system (ThermoFisher). Nonspecific binding was blocked by incubating membranes with Intercept Blocking Buffer (Licor) for 1 hour at room temperature with gentle shaking. The membranes were then incubated overnight at 4° C. with Primary antibodies rabbit anti-AR (1:1,000, Cell Signaling, 5153) and mouse anti-GAPDH (1:5,000, Santa Cruz Biotechnology, sc-47724) diluted in Intercept Blocking Buffer containing 0.1% Tween 20. After washing 3 times with TBS-T, the membranes were incubated with IRDye® […] goat anti-mouse IgG (1:20,000, Licor) or IRDye® […] goat anti-rabbit IgG (1:20,000, Licor) for 1 hour. After TBS-T washes, membranes were rinsed in TBS and scanned on Odyssey® CLx Imaging System (Licor). The bands were quantified using Image Studio™ Software (Licor).
# (§2) Tables 5 and 6 summarize the androgen receptor (AR) degradative activity of exemplary compounds in LNCAP, VCAP and 22Rv1 cell lines 24 hours after administration. DC50: compound concentration needed for 50% target protein degradation.
# androgen receptor (AR) [3] = biological target: T2, androgen receptor (AR) (Homo sapiens, UniProt P10275); test: AR degradation in VCAP cells (Western blot)
# T2 construct: endogenous in cells; host or cells: VCAP
# T2 sequence (P10275 1-920): T1 sequence (P10275 1-920 T878A) with A878T
# Procedure: as §1, §2
Compound,DC50 (androgen receptor (AR) [1]),DC50 (androgen receptor (AR) [2]),DC50 (androgen receptor (AR) [3])
"C[C@@H]1CN(c2ccc(C#N)c(Cl)c2)[C@@H](C)CN1C(=O)Nc1cnc(N2CCC(CN3CCN(c4ccc5c(c4)C(=O)N(C4CCC(=O)NC4=O)C5=O)CC3)CC2)nc1 (stereo partly drawn) [Compound 1-20, (2R,5S)-4-(3-chloro-4-cyanophenyl)-N-(2-(4-((4-(2-(2,6-dioxopiperidin-3-yl)-1,3-dioxoisoindolin-5-yl)piperazin-1-yl)methyl)piperidin-1-yl)pyrimidin-5-yl)-2,5-dimethylpiperazine-1-carboxamide]",≤ 10 nM,≤ 10 nM,
"C[C@@H]1CN(c2ccc(C#N)c(Cl)c2)[C@@H](C)CN1C(=O)Nc1cnc(N2CCC(CN3CCN(c4ccc5c(c4)C(=O)N(C4CCC(=O)NC4=O)C5=O)CC3)CC2)nc1 (stereo partly drawn) [Compound 1-21, (2R,5S)-4-(3-chloro-4-cyanophenyl)-N-(2-(4-((4-(2-(2,6-dioxopiperidin-3-yl)-1,3-dioxoisoindolin-5-yl)piperazin-1-yl)methyl)piperidin-1-yl)pyrimidin-5-yl)-2,5-dimethylpiperazine-1-carboxamide]",≤ 10 nM,,≤ 10 nM
"C[C@@H]1CN(C(=O)Nc2cnc(N3CCC(CN4CCN(c5ccc6c(c5)C(=O)N(C5CCC(=O)NC5=O)C6=O)CC4)CC3)nc2)[C@@H](C)CN1c1ccc(C#N)c(Cl)c1 (stereo partly drawn) [Compound 1-22, (2S,5R)-4-(3-chloro-4-cyanophenyl)-N-(2-(4-((4-(2-(2,6-dioxopiperidin-3-yl)-1,3-dioxoisoindolin-5-yl)piperazin-1-yl)methyl)piperidin-1-yl)pyrimidin-5-yl)-2,5-dimethylpiperazine-1-carboxamide]",> 100 nM,,> 100 nM
"COc1cc(N2C[C@@H](C)N(C(=O)Nc3ccc(N4CCC(CN5CCN(c6ccc7c(c6)C(=O)N(C6CCC(=O)NC6=O)C7=O)CC5)CC4)nc3)C[C@@H]2C)ccc1C#N (stereo partly drawn) [Compound 1-26, (2R,5S)-4-(4-cyano-3-methoxyphenyl)-N-(6-(4-((4-(2-(2,6-dioxopiperidin-3-yl)-1,3-dioxoisoindolin-5-yl)piperazin-1-yl)methyl)piperidin-1-yl)pyridin-3-yl)-2,5-dimethylpiperazine-1-carboxamide]",≤ 10 nM,,≤ 10 nM
"COc1cc(N2C[C@@H](C)N(C(=O)Nc3cnc(N4CCC(CN5CCN(c6ccc7c(c6)C(=O)N(C6CCC(=O)NC6=O)C7=O)CC5)CC4)nc3)C[C@@H]2C)ccc1C#N (stereo partly drawn) [Compound 1-27, (2R,5S)-4-(4-cyano-3-methoxyphenyl)-N-(2-(4-((4-(2-(2,6-dioxopiperidin-3-yl)-1,3-dioxoisoindolin-5-yl)piperazin-1-yl)methyl)piperidin-1-yl)pyrimidin-5-yl)-2,5-dimethylpiperazine-1-carboxamide]",≤ 10 nM,,≤ 10 nM
"COc1cc(N2C[C@@H](C)N(C(=O)Nc3cc(F)c(N4CCC(CN5CCN(c6ccc7c(c6)C(=O)N(C6CCC(=O)NC6=O)C7=O)CC5)CC4)cc3F)C[C@@H]2C)ccc1C#N (stereo partly drawn) [Compound 1-29, (2R,5S)-4-(4-cyano-3-methoxyphenyl)-N-(4-(4-((4-(2-(2,6-dioxopiperidin-3-yl)-1,3-dioxoisoindolin-5-yl)piperazin-1-yl)methyl)piperidin-1-yl)-2,5-difluorophenyl)-2,5-dimethylpiperazine-1-carboxamide]",≤ 10 nM,,≤ 10 nM
"C[C@@H]1CN(c2ccc(C#N)c(C(F)(F)F)c2)[C@@H](C)CN1C(=O)Nc1ccc(N2CCC(CN3CCN(c4ccc5c(c4)C(=O)N(C4CCC(=O)NC4=O)C5=O)CC3)CC2)nc1 (stereo partly drawn) [Compound 1-30, (2R,5S)-4-(4-cyano-3-(trifluoromethyl)phenyl)-N-(6-(4-((4-(2-(2,6-dioxopiperidin-3-yl)-1,3-dioxoisoindolin-5-yl)piperazin-1-yl)methyl)piperidin-1-yl)pyridin-3-yl)-2,5-dimethylpiperazine-1-carboxamide]",≤ 10 nM,,≤ 10 nM
"C[C@@H]1CN(c2ccc(C#N)c(C(F)(F)F)c2)[C@@H](C)CN1C(=O)Nc1cnc(N2CCC(CN3CCN(c4ccc5c(c4)C(=O)N(C4CCC(=O)NC4=O)C5=O)CC3)CC2)nc1 (stereo partly drawn) [Compound 1-31, (2R,5S)-4-(4-cyano-3-(trifluoromethyl)phenyl)-N-(2-(4-((4-(2-(2,6-dioxopiperidin-3-yl)-1,3-dioxoisoindolin-5-yl)piperazin-1-yl)methyl)piperidin-1-yl)pyrimidin-5-yl)-2,5-dimethylpiperazine-1-carboxamide]",≤ 10 nM,,≤ 10 nM
"C[C@@H]1CN(c2ccc(C#N)c(C(F)(F)F)c2)[C@@H](C)CN1C(=O)Nc1ccc(N2CCC(CN3CCN(c4ccc5c(c4)CN([C@H]4CCC(=O)NC4=O)C5=O)CC3)CC2)nc1 [Compound 1-43, (2R,5S)-4-(4-cyano-3-(trifluoromethyl)phenyl)-N-(6-(4-((4-(2-((S)-2,6-dioxopiperidin-3-yl)-1-oxoisoindolin-5-yl)piperazin-1-yl)methyl)piperidin-1-yl)pyridin-3-yl)-2,5-dimethylpiperazine-1-carboxamide]",≤ 10 nM,≤ 10 nM,≤ 10 nM
"(2R,5S)-4-(4-cyano-3-methoxyphenyl)-N-(4-(4-((4-(2-((S)-2,6-dioxopiperidin-3-yl)-1-oxoisoindolin-5-yl)piperazin-1-yl)methyl)piperidin-1-yl)-3-fluorophenyl)-2,5-dimethylpiperazine-1-carboxamide [Compound 1-53]",≤ 10 nM,≤ 10 nM,≤ 10 nM
